Assay results: patent publication US7091229B2, “Tricyclic lactam and sultam derivatives and their use as histone deacetylase inhibitors” (Hoffman-La Roche Inc., priority 2001, dated 2006)

The molecules below were run on HDAC (assay: HDAC inhibition assay using an aminocoumarin derivative of an omega-acetylated lysine as substrate). Conditions: compound concentration 10 nM.
Format: biochemical
Experimental: To determine the HDAC inhibitory properties of the compounds of the invention an assay was performed using an aminocoumarin derivative of an omega-acetylated lysine as substrate for the enzyme. This assay has been described in detail in the literature (Nucleic Acid Research 1999, 27, 2057–2058. Using the protocol described therein, the inhibitory effect of representative compounds was determined at a concentration of 10 nM. The observed inhibition rates for selected compounds are shown in Table 1: […]

Row | Compound | Inhibitory effect at 10 nM in %
1 | O=C(CCCCCCCN1C(=O)c2cccc3cccc1c23)NO [Example 3, 8-(2-oxo-2H-benzo[cd]indol-1-yl)-octanoic acid hydroxyamide] | 82%
2 | O=C(CCCCCCCN1c2cccc3cccc(c23)S1(=O)=O)NO [Example 1, 8-(1,1-dioxo-2H-naphtho[1,8-cd]isothiazol-2-yl)-octanoic acid hydroxyamide] | 64%
3 | O=C(CCCCCCN1c2cccc3cccc(c23)S1(=O)=O)NO [Example 2, 7-(1,1-dioxo-2H-naphtho[1,8-cd]isothiazol-2-yl)-heptanoic acid hydroxyamide] | 90%
